# Test results published in patent US20060069132A1, “Azolecarboxamide herbicides” (priority 2004, published 2006).
# What was measured:
# Test in all cases: Test E pre-/postemergence herbicide test
# bermudagrass = type: in vivo, Cynodon dactylon
# Procedure, shortened: (§1)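 In this greenhouse assay, compounds in a solvent vehicle containing surfactant were applied pre- and postemergence, the latter to plants 2 to 18 cm high. Control was judged by eye after 12 to 14 days on a 0 to 100 scale.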
# large crabgrass = type: in vivo, Digitaria sanguinalis
# Procedure, shortened: as §1
# green foxtail = type: in vivo, Setaria viridis
# Procedure, shortened: as §1
# johnsongrass = type: in vivo, Sorghum halepense
# Procedure, shortened: as §1
# purple nutsedge = type: in vivo, Cyperus rotundus
# Procedure, shortened: as §1
# mustard = type: in vivo, Brassica nigra
# Procedure, shortened: as §1
# guineagrass = type: in vivo, Panicum maximum
# Procedure, shortened: as §1
# southern sandbur = type: in vivo, Cenchrus echinatus
# Procedure, shortened: as §1
# common sowthistle = type: in vivo, Sonchus oleraceous
# Procedure, shortened: as §1
# prickly sida = type: in vivo, Sida spinosa
# Text: Seeds of plant species selected from bipinnate beggarticks (Bidens bipinnata L.), hairy beggarticks (Bidens radiata Thuill.), bermudagrass (Cynodon dactylon (L.) Pers.), Surinam grass (Urochloa decumbens (Staph) R. D. Webster, previously named Brachiaria decumbens Stapf), large crabgrass (Digitaria sanguinalis (L.) Scop.), green foxtail (Setaria viridis (L.) P. Beauv.), goosegrass (Eleusine indica (L.) Gaertn.), johnsongrass (Sorghum halepense (L.) Pers.), kochia (Kochia scoparia (L.) Schrad.), pitted morningglory (Ipomoea lacunosa L.), purple nutsedge (Cyperus rotundus L.), common ragweed (Ambrosia elatior L.), mustard (Brassica nigra (L.) W. D. J. Koch), guineagrass (Panicum maximum Jacq.), dallisgrass (Paspalum dilatatum Poir.), barnyardgrass (Echinochloa crus-galli (L). P. Beauv.), southern sandbur (Cenchrus echinatus L.), common sowthistle (Sonchus oleraceous L.), prickly sida (Sida spinosa L.), Italian ryegrass (Lolium multiflorum Lam.), common purslane (Portulaca oleracea L.), broadleaf signalgrass (Brachiaria platyphylla (Griseb.) Nash), common groundsel (Senecio vulgaris L.), common chickweed (Stellaria media (L.) Vill/Cyr.), tropical spiderwort (Commelina benghalensis L.), annual bluegrass (Poa annua L.), downy bromegrass (Bromus tectorum L.), itchgrass (Rottboellia cochinchinensis (L.) L.f.), quackgrass (Elytrigia repens (L.) Nevski), Canada horseweed (Erigeron Canadensis L.), field bindweed (Convolvulus arvensis L.), spotted spurge (Euphorbia maculata L.), common mallow (Malva sylvestris (=s silvestris) L.), and Russian thistle (Salsola kali L. ssp. Ruthenica (Iljin) Soo) were planted and treated preemergence with test chemicals formulated in a non-phytotoxic solvent mixture which included a surfactant.
# At the same time, plants selected from these weed species were treated with postemergence applications of some of the test chemicals formulated in the same manner. Plants ranged in height from 2 to 18 cm (1- to 4-leaf stage) for postemergence treatments. Treated plants and controls were maintained in a greenhouse for 12 to 14 days, after which time all species were compared to controls and visually evaluated. Plant response ratings, summarized in Table E, are based on a scale of 0 to 100 where 0 is no effect and 100 is complete control. A dash (-) response means no test result.
# common purslane = type: in vivo, Portulaca oleracea; settings: Preemergence
# Procedure, shortened: as §1
# common chickweed = type: in vivo, Stellaria media
# Procedure, shortened: as §1
# downy bromegrass = type: in vivo, Bromus tectorum
# Procedure, shortened: as §1
# quackgrass = type: in vivo, Elytrigia repens
# Procedure, shortened: as §1
# field bindweed = type: in vivo, Convolvulus arvensis
# Procedure, shortened: as §1
# Russian thistle = type: in vivo, Salsola kali
# Procedure, shortened: as §1
# Canada horseweed = type: in vivo, Erigeron Canadensis; settings: Preemergence
# Procedure, shortened: as §1
# [1] = Postemergence, 500 g ai/ha, scale 0 to 100
# [2] = Postemergence, 250 g ai/ha, scale 0 to 100
# [3] = Preemergence, 62 g ai/ha, scale 0 to 100
# [4] = Preemergence, 125 g ai/ha, scale 0 to 100
# [5] = Preemergence, 250 g ai/ha, scale 0 (no effect) to 100 (complete control)
# [6] = Preemergence, 500 g ai/ha, scale 0 (no effect) to 100 (complete control)
# [7] = postemergence, 125 g ai/ha, scale 0 to 100
# [8] = 250 g ai/ha, scale 0 (no effect) to 100 (complete control)
# [9] = 500 g ai/ha, scale 0 (no effect) to 100 (complete control)
compound,measurement,setting,value
CCNC(=O)c1ccnc(NC(=O)c2cc(C(C)(C)C)nn2CC)c1 [Compound 152],"Plant response rating, Bermudagrass",bermudagrass; [1],75
same,"Plant response rating, Bermudagrass",bermudagrass; [2],75
same,"Plant response rating, Bermudagrass",bermudagrass; [3],70
same,"Plant response rating, Bermudagrass",bermudagrass; [4],90
same,"Plant response rating, Bermudagrass",bermudagrass; [5],95
same,"Plant response rating, Bermudagrass",bermudagrass; [6],95
same,"Plant response rating, Bermudagrass",bermudagrass; [7],40
same,"Plant response rating, Crabgrass, Large",large crabgrass; [1],80
same,"Plant response rating, Crabgrass, Large",large crabgrass; [2],75
same,"Plant response rating, Crabgrass, Large",large crabgrass; [3],40
same,"Plant response rating, Crabgrass, Large",large crabgrass; [4],70
same,"Plant response rating, Crabgrass, Large",large crabgrass; [5],100
same,"Plant response rating, Crabgrass, Large",large crabgrass; [6],100
same,"Plant response rating, Crabgrass, Large",large crabgrass; [7],60
same,"Plant response rating, Foxtail, Green",green foxtail; [1],85
same,"Plant response rating, Foxtail, Green",green foxtail; [2],85
same,"Plant response rating, Foxtail, Green",green foxtail; [3],20
same,"Plant response rating, Foxtail, Green",green foxtail; [4],70
same,"Plant response rating, Foxtail, Green",green foxtail; [5],85
same,"Plant response rating, Foxtail, Green",green foxtail; [6],100
same,"Plant response rating, Foxtail, Green",green foxtail; [7],40
same,"Plant response rating, Johnsongrass",johnsongrass; [1],95
same,"Plant response rating, Johnsongrass",johnsongrass; [2],80
same,"Plant response rating, Johnsongrass",johnsongrass; [3],30
same,"Plant response rating, Johnsongrass",johnsongrass; [4],50
same,"Plant response rating, Johnsongrass",johnsongrass; [5],80
same,"Plant response rating, Johnsongrass",johnsongrass; [6],85
same,"Plant response rating, Johnsongrass",johnsongrass; [7],70
same,"Plant response rating, Nutsedge, Purple",purple nutsedge; [1],75
same,"Plant response rating, Nutsedge, Purple",purple nutsedge; [2],60
same,"Plant response rating, Nutsedge, Purple",purple nutsedge; [3],0
same,"Plant response rating, Nutsedge, Purple",purple nutsedge; [4],20
same,"Plant response rating, Nutsedge, Purple",purple nutsedge; [5],50
same,"Plant response rating, Nutsedge, Purple",purple nutsedge; [6],60
same,"Plant response rating, Nutsedge, Purple",purple nutsedge; [7],30
same,"Plant response rating, Black Mustard",mustard; [1],100
same,"Plant response rating, Black Mustard",mustard; [2],100
same,"Plant response rating, Black Mustard",mustard; [3],90
same,"Plant response rating, Black Mustard",mustard; [4],90
same,"Plant response rating, Black Mustard",mustard; [5],95
same,"Plant response rating, Black Mustard",mustard; [6],100
same,"Plant response rating, Guineagrass",guineagrass; [1],80
same,"Plant response rating, Guineagrass",guineagrass; [2],70
same,"Plant response rating, Guineagrass",guineagrass; [3],20
same,"Plant response rating, Guineagrass",guineagrass; [4],50
same,"Plant response rating, Guineagrass",guineagrass; [5],80
same,"Plant response rating, Guineagrass",guineagrass; [6],100
same,"Plant response rating, Sandbur",southern sandbur; [1],100
same,"Plant response rating, Sandbur",southern sandbur; [2],40
same,"Plant response rating, Sandbur",southern sandbur; [3],10
same,"Plant response rating, Sandbur",southern sandbur; [4],30
same,"Plant response rating, Sandbur",southern sandbur; [5],70
same,"Plant response rating, Sandbur",southern sandbur; [6],80
same,"Plant response rating, Sandbur",southern sandbur; [7],20
same,"Plant response rating, Sowthistle",common sowthistle; [1],100
same,"Plant response rating, Sowthistle",common sowthistle; [2],90
same,"Plant response rating, Sowthistle",common sowthistle; [3],80
same,"Plant response rating, Sowthistle",common sowthistle; [4],80
same,"Plant response rating, Sowthistle",common sowthistle; [5],95
same,"Plant response rating, Sowthistle",common sowthistle; [6],95
same,"Plant response rating, Prickly Sida",prickly sida; [1],85
same,"Plant response rating, Prickly Sida",prickly sida; [2],60
same,"Plant response rating, Prickly Sida",prickly sida; [3],20
same,"Plant response rating, Prickly Sida",prickly sida; [4],20
same,"Plant response rating, Prickly Sida",prickly sida; [5],60
same,"Plant response rating, Prickly Sida",prickly sida; [6],95
same,"Plant response rating, Purslane","common purslane; 62 g ai/ha, scale 0 to 100",0
same,"Plant response rating, Purslane","common purslane; 125 g ai/ha, scale 0 to 100",0
same,"Plant response rating, Purslane",common purslane; [8],50
same,"Plant response rating, Purslane",common purslane; [9],100
same,"Plant response rating, Chickweed",common chickweed; [1],100
same,"Plant response rating, Chickweed",common chickweed; [3],90
same,"Plant response rating, Chickweed",common chickweed; [4],95
same,"Plant response rating, Chickweed",common chickweed; [5],100
same,"Plant response rating, Chickweed",common chickweed; [6],100
same,"Plant response rating, Bromegrass, Downy",downy bromegrass; [1],80
same,"Plant response rating, Bromegrass, Downy",downy bromegrass; [2],75
same,"Plant response rating, Bromegrass, Downy",downy bromegrass; [3],0
same,"Plant response rating, Bromegrass, Downy",downy bromegrass; [4],30
same,"Plant response rating, Bromegrass, Downy",downy bromegrass; [5],60
same,"Plant response rating, Bromegrass, Downy",downy bromegrass; [6],90
same,"Plant response rating, Quackgrass",quackgrass; [1],80
same,"Plant response rating, Quackgrass",quackgrass; [2],80
same,"Plant response rating, Quackgrass",quackgrass; [3],10
same,"Plant response rating, Quackgrass",quackgrass; [4],20
same,"Plant response rating, Quackgrass",quackgrass; [5],50
same,"Plant response rating, Quackgrass",quackgrass; [6],60
same,"Plant response rating, Quackgrass",quackgrass; [7],70
same,"Plant response rating, Bindweed, Field",field bindweed; [1],50
same,"Plant response rating, Bindweed, Field",field bindweed; [2],30
same,"Plant response rating, Bindweed, Field",field bindweed; [3],10
same,"Plant response rating, Bindweed, Field",field bindweed; [4],20
same,"Plant response rating, Bindweed, Field",field bindweed; [5],60
same,"Plant response rating, Bindweed, Field",field bindweed; [6],90
same,"Plant response rating, Bindweed, Field",field bindweed; [7],30
same,"Plant response rating, Thistle",Russian thistle; [1],80
same,"Plant response rating, Thistle",Russian thistle; [2],80
same,"Plant response rating, Thistle",Russian thistle; [3],20
same,"Plant response rating, Thistle",Russian thistle; [4],20
same,"Plant response rating, Thistle",Russian thistle; [6],100
Cc1nn(C(C)(C)C)nc1C(=O)Nc1cccc(C(=O)N(C)C)c1 [Compound 391],"Plant response rating, Bermudagrass",bermudagrass; [3],85
same,"Plant response rating, Bermudagrass",bermudagrass; [4],90
same,"Plant response rating, Bermudagrass",bermudagrass; [5],95
same,"Plant response rating, Bermudagrass",bermudagrass; [6],95
same,"Plant response rating, Crabgrass, Large",large crabgrass; [3],60
same,"Plant response rating, Crabgrass, Large",large crabgrass; [4],95
same,"Plant response rating, Crabgrass, Large",large crabgrass; [5],95
same,"Plant response rating, Crabgrass, Large",large crabgrass; [6],95
same,"Plant response rating, Foxtail, Green",green foxtail; [3],60
same,"Plant response rating, Foxtail, Green",green foxtail; [4],80
same,"Plant response rating, Foxtail, Green",green foxtail; [5],95
same,"Plant response rating, Foxtail, Green",green foxtail; [6],100
same,"Plant response rating, Johnsongrass",johnsongrass; [3],40
same,"Plant response rating, Johnsongrass",johnsongrass; [4],60
same,"Plant response rating, Johnsongrass",johnsongrass; [5],85
same,"Plant response rating, Johnsongrass",johnsongrass; [6],100
same,"Plant response rating, Nutsedge, Purple",purple nutsedge; [5],75
same,"Plant response rating, Nutsedge, Purple",purple nutsedge; [6],75
same,"Plant response rating, Black Mustard",mustard; [3],50
same,"Plant response rating, Black Mustard",mustard; [4],80
same,"Plant response rating, Black Mustard",mustard; [5],100
same,"Plant response rating, Black Mustard",mustard; [6],100
same,"Plant response rating, Guineagrass",guineagrass; [3],60
same,"Plant response rating, Guineagrass",guineagrass; [4],80
same,"Plant response rating, Guineagrass",guineagrass; [5],100
same,"Plant response rating, Guineagrass",guineagrass; [6],100
same,"Plant response rating, Sandbur",southern sandbur; [3],10
same,"Plant response rating, Sandbur",southern sandbur; [4],70
same,"Plant response rating, Sandbur",southern sandbur; [5],80
same,"Plant response rating, Sandbur",southern sandbur; [6],80
same,"Plant response rating, Sowthistle",common sowthistle; [3],50
same,"Plant response rating, Sowthistle",common sowthistle; [4],75
same,"Plant response rating, Sowthistle",common sowthistle; [5],100
same,"Plant response rating, Sowthistle",common sowthistle; [6],100
same,"Plant response rating, Prickly Sida",prickly sida; [3],50
same,"Plant response rating, Prickly Sida",prickly sida; [4],100
same,"Plant response rating, Prickly Sida",prickly sida; [5],100
same,"Plant response rating, Prickly Sida",prickly sida; [6],100
same,"Plant response rating, Purslane","common purslane; 62 g ai/ha, scale 0 to 100",50
same,"Plant response rating, Purslane","common purslane; 125 g ai/ha, scale 0 to 100",95
same,"Plant response rating, Purslane",common purslane; [8],100
same,"Plant response rating, Purslane",common purslane; [9],100
same,"Plant response rating, Chickweed",common chickweed; [3],90
same,"Plant response rating, Chickweed",common chickweed; [4],90
same,"Plant response rating, Chickweed",common chickweed; [5],100
same,"Plant response rating, Chickweed",common chickweed; [6],100
same,"Plant response rating, Bromegrass, Downy",downy bromegrass; [3],10
same,"Plant response rating, Bromegrass, Downy",downy bromegrass; [4],30
same,"Plant response rating, Bromegrass, Downy",downy bromegrass; [5],95
same,"Plant response rating, Bromegrass, Downy",downy bromegrass; [6],95
same,"Plant response rating, Quackgrass",quackgrass; [3],40
same,"Plant response rating, Quackgrass",quackgrass; [4],90
same,"Plant response rating, Quackgrass",quackgrass; [5],95
same,"Plant response rating, Quackgrass",quackgrass; [6],95
same,"Plant response rating, Horseweed","Canada horseweed; 62 g ai/ha, scale 0 to 100",80
same,"Plant response rating, Horseweed","Canada horseweed; 125 g ai/ha, scale 0 to 100",95
same,"Plant response rating, Horseweed",Canada horseweed; [8],100
same,"Plant response rating, Horseweed",Canada horseweed; [9],100
same,"Plant response rating, Bindweed, Field",field bindweed; [3],20
same,"Plant response rating, Bindweed, Field",field bindweed; [4],90
same,"Plant response rating, Bindweed, Field",field bindweed; [5],90
same,"Plant response rating, Bindweed, Field",field bindweed; [6],95
same,"Plant response rating, Thistle",Russian thistle; [4],100
same,"Plant response rating, Thistle",Russian thistle; [6],100
